The text below walks through data of ChEMBL document CHEMBL1122513, “Synthesis and antiviral activity of carbocyclic analogues of 2'-deoxyribofuranosides of 2-amino-6-substituted-purines and of 2-amino-6-substituted-8-azapurines” (J Med Chem, 1984).

The test system of this assay is Vaccinia virus. The assay can be described thus: Concentration required to inhibit vaccinia virus induced cytopathogenic affects by 50%. The class given is functional, Orthopoxvirus vaccinia. For orientation: Protection from cytopathic effect is a common read-out in antiviral testing.
[1] abbreviates: Orthopoxvirus vaccinia, read-out: MIC50.

The structures appear in SMILES notation. ≈ marks a conversion by molar mass, not a printed value.

`OCC1CC(n2nnc3c(O)ncnc32)C(O)C1O` (stereo not given): the MIC50 under setting [1] came to 467 µg/mL (≈ 1750 µM). On the same count and under the same terms, to `OCC1CC(n2cnc3c(O)ncnc32)C(O)C1O` (stereo not given) belongs 191 µg/mL (≈ 717 µM).

Regarding `Nc1ccn([C@@H]2C[C@H](CO)[C@@H](O)[C@H]2O)c(=O)n1` (stereo in doubt; form 2), the MIC50 under setting [1] was found to be 57 µg/mL (≈ 236 µM). Consider `Nc1ncnc2c1ncn2[C@@H]1C[C@H](CO)[C@@H](O)[C@@H]1O`, for which the MIC50 came out at 9 µg/mL (≈ 33.9 µM). The MIC50 under setting [1] was 9 µg/mL (≈ 33.9 µM).
